Consider one compound from patent US12569563B2, “Selective HDAC6 degraders and methods of use thereof” (DANA-FARBER CANCER INSTITUTE, INC., priority 2019, dated 2026).

One test has as its target T1, HDAC10 (Homo sapiens, UniProt Q969S8).
T1 construct: purchased Reaction Biology
T1 sequence (Q969S8 1-669): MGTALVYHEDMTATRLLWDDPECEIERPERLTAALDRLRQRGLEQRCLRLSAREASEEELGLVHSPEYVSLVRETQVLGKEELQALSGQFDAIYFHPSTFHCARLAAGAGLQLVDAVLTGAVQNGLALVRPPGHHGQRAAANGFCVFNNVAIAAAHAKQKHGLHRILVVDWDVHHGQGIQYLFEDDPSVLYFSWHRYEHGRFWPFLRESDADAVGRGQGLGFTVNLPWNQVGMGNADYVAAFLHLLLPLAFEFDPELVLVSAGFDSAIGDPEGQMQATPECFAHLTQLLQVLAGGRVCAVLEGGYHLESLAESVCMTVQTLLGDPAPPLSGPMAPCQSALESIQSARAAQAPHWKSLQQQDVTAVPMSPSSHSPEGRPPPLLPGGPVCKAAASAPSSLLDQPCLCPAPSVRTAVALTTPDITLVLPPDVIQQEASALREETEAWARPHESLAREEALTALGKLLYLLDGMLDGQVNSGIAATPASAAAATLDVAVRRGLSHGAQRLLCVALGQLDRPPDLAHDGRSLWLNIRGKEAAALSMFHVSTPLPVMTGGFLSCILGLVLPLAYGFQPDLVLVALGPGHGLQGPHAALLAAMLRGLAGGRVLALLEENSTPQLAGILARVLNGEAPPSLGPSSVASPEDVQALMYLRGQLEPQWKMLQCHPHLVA
In words: HDAC assay from Reaction Biology, fluorogenic substrate. It counts as biochemical. The conditions noted are these: 10-dose response curve; read-out: Compound IC50 HDAC10. How it is done: Compounds 1 and 3 were tested in a HDAC assay from Reaction Biology® against 10 different HDACs.
Base Reaction buffer: 50 mM Tris-HCl, pH8.0, 137 mM NaCl, 2.7 mM KCl, and 1 mM MgCl2,
Add fresh: 1 mg/ml BSA, 1% DMSO
Fluorogenic HDAC General Substrate (HDAC1, HDAC2, HDAC3, HDAC6, HDAC10, and HDAC11): 50 μM, Arg-His-Lys-Lys(Ac)-AMC
• (HDAC8 only substrate: 50 μM, Arg-His-Lys(Ac)-Lys(Ac))-AMC Class2A Substrate (HDAC4, HDAC5, HDAC7, and HDAC9): Boc-Lys(trifluoroacetyl)-AMC For SIRTs 1-3, general Class1 HDAC substrate and 500 μM NAD+ For SIRT5, Ac-Lys-succ and 500 μM NAD+ Reaction Procedure Deacetylation Step • 1. Delivered 2× enzyme in wells of reaction plate except in the control wells and added buffer to control wells. • 2. Delivered compounds in 100% DMSO into the enzyme mixture by Acoustic technology (Echo550; nanoliter range). Spin down and pre-incubation. • 3. Delivered 2× Substrate Mixture (Fluorogenic HDAC Substrate and co-factor if applicable) in all reaction wells to initiate the reaction. Spin and shake. • 4. Incubated for 30 min for Class 2A, 1 hr for HDAC1, 2, 3, and 6, and 2 hr for the rest of HDACs and SIRTs at 30° C. with seal. Development Step • 5. Added Developer with Trichostatin A (or Nicotinamide for SIRTs) to stop the reaction and to generate fluorescent color. • 6. The fluorescence that was generated was detected with excitation (Ex) at […] and emission (Em) at 460 nM by the EnVision Multilabel Plate Reader (PerkinElmer®, Santa Clara, CA, USA). • 7. IC50 values, presented in Table 1, were derived from a 10-dose response curve.

For another test, the target named is T2, CRBN (Homo sapiens, UniProt Q96SW2).
T2 construct: endogenous in cells; host or cells: Flp-In 293 cells stably expressing BRD4BD2-eGFP-P2A-mCherry
Description: Cellular CRBN engagement assay (competition with dBET6, BRD4BD2-eGFP reporter). The test is classed as cell-based. The conditions noted are these: Flip-In 293 BRD4BD2-eGFP cells, 100 nM dBET6, 5 h. From the text:
The cellular CRBN engagement assay measures the cellular binding affinity which is the combination of the compound's cell permeability and their binding affinity to CRBN. This is done by measuring the ability of thalidomide-based degrader molecules to compete with pan-BET bromodomain degrader dBET6 (Nowak et al., Nat. Chem. Biol. 14:706-714 (2018)) for CRBN binding in cells. If no degrader compound is present in the cell, BRD4BRD2-eGFP is degraded by dBET6 via the proteasome system. […]
Cells were seeded at 30-50% confluency in either 24, 48 or 96 well plates (3524, 3548, 3596 respectively, Costar) a day before compound treatment. The inventive compounds were titrated in the presence of 100 nM dBET6 and then were incubated with cells for 5 h following trypsinization and resuspension in DMEM media, transferred into 96-well plates (353910, Falcon®) and analyzed by flow cytometer (Guava® easyCyte™ HT, Millipore®). Signal from at least 3000 events per well was acquired and the eGFP and mCherry florescence monitored. Data was analyzed using FlowJo® (FlowJo®, LCC). Forward and side scatter outliers, frequently associated with cell debris, were removed leaving >90% of total cells, followed by removal of eGFP and mCherry signal outliers, leaving 88-90% of total cells creating the set used for quantification. […]

pIC50: −log10 of the molar value.

As a reminder, the pIC50 is −log10 of the IC50, conventionally taken in molar units. In the case of `CN(C(=O)CCCCCCCNc1cccc2c1C(=O)N(C1CCC(=O)NC1=O)C2=O)c1ccc(NC(=O)CCCCCCC(=O)NO)cc1` (centres unmarked) [Compound 3, N^1-(4-(8-((2-(2,6-dioxopiperidin-3-yl)-1,3-dioxoisoindolin-4-yl)amino)-N-methyloctanamido)phenyl)-N^8-hydroxyoctanediamide], the results for the negative logarithm of the IC50 (pIC50) on HDAC10 and at CRBN were 5.18 and 5.79, respectively.
